# Values quoted from earlier work in paper PMC8557155 (Annals of Nuclear Medicine, 2021).
# Settings: rat model, lysine-protected rats; cited from earlier work
smiles,measurement,value
NCCCC[C@H](N)C(=O)O [lysine],Reduction of 177Lu quantified in the kidney,approximately 45%
